Measurements published in US20240268372A1, “Methods and Compositions for Extending Organ and Tissue Preservation” (The General Hospital Corporation, priority 2021, published 2024).
Several values for one entry are separate records, joined by “and”; a condition that tells them apart may be missing. Equal entries are not always repeated.

Assays:
whole rat livers [1] = test: Optimized partial freezing of whole rat livers: ex vivo simulated transplantation (normothermic reperfusion with whole blood)
Procedure: (§1) Within this standardized protocol, we first compared GLY, EG, and PG as main permeating CPA using a freezing temperature of −10° C. and storage duration of 1 day (FIG. 37). Using PG as the CPA, we subsequently tested the effect of freezing temperature (−10° C. vs −15° C.) and storage duration (1 day vs 5 days) on liver viability after partial freezing using the same protocol (FIG. 38).
The Affinity Pixie Oxygenator is a clinical grade oxygenator that has graduated fiber bundle density technology and radial flow path that is designed to create a more uniform blood flow, enhance gas transfer, reduce pressure drops, and decrease prime volume. Moreover, it also contains a Balance® Biosurface that contains a hydrophilic polymer coating to reduce platelet adhesion and activation. This adaptation to the oxygenator is essential since recirculating whole blood during simulated transplantation may trigger coagulation and inflammatory events that are not representative of in vivo events and could skew observed outcomes.
(§2) Machine perfusion system: The perfusion system provides a continuous perfusion through the portal vein that is pressure, flow, and temperature controlled. The perfusates can be either recirculated or flushed with a single pass though the liver and perfusates can be changed without interrupting perfusion. The setup and operation of the perfusion system is described in detail elsewhere (see, e.g., ref. 15). There were two oxygenators used in this study, including the Radnoti (Cat #130144) and Affinity Pixie Oxygenator (Cat #BBP241). Due to the flexibility and low cost of the Radnoti oxygenator, it was first used for initial optimization and characterization studies, including determining the effect of permeating CPAs (GLY vs EG vs PG; FIG. 37), temperature (−10 vs −15° C., FIG. 38) storage duration (1 vs 5 days, FIG. 38), and warm ischemic injury.
Preconditioning during SNMP: Directly after procurement the livers were perfused with 250 ml of SNMP preloading solution (see Table 7 for composition of all solutions). The perfusion temperature was set at 21° C. and perfusion was initiated at 5 ml/min. […] Next, the livers were perfused for 30 additional minutes to allow for cellular uptake of 3-O-methyl-D-glucose (3-OMG).
Preloading of CPAs during HMP: The SNMP preloading solution was gradually switched to HMP preloading solution in […] increments, each with 10% decreasing and 10% increasing volumetric fractions of SNMP and HMP preloading solution, respectively. During this switch, the perfusion temperature was lowered to 4° C., and flows were adjusted to a maximum perfusion pressure of 3 mmHg. Dependent on the flowrate, the solution switch took 10-15 minutes. The HMP preloading was continued for 30 additional minutes to ensure complete equilibration of the solution throughout the peripheral liver tissue.
This was done in 10 fractions of 10 ml, each with 10% decreasing and 10% increasing volumetric fractions of HMP preloading solution and storage solution, respectively. During this switch, the perfusion temperature was maintained at 4° C., and the flowrates were lowered to ensure a maximum perfusion pressure of 3 mmHg. The final 15 ml fraction of 100% storage solution was loaded at a fixed flowrate of 0.5 ml/min.
Partial freezing: After loading of the storage solution, the liver was placed in a bag with 50 ml fresh storage solution and suspended in a pre-cooled chiller (Engel, Schwertberg, Austria). Depending on the experimental condition the chiller temperature was pre-cooled to −10° C. or −15° C. and the liver stored for […] 5 days.

whole rat livers [2] = test: Optimized partial freezing of whole rat livers: SNMP recovery after freezing; conditions: −15° C., 5 days; at 3 h
Procedure: as §1
as §2, with “injury. Once the major aspects of the protocol were optimized and characterized, we used the clinical grade Affinity Pixie Oxygenator. […]” for “injury.”

[3] = −10° C., 1 day, at 2 h of simulated transplantation
[4] = clinical grade oxygenator, −15° C., 1 day
[5] = clinical grade oxygenator, −15° C., 1 day, at 2 h
[6] = clinical grade oxygenator, −15° C., 5 day
[7] = clinical grade oxygenator, −15° C., 5 day, at 2 h

With OCCO [EG, ethylene glycol] the “bile production during simulated transplantation” value (whole rat livers [1]; −10° C., 1 day) was “did not produce bile”, the “lactate clearance after first hour of simulated transplantation” value (whole rat livers [1]; −10° C., 1 day) was “not observed” and the “microscopic tissue structure (H&E, blinded pathologist)” value (whole rat livers [1]; −10° C., 1 day) was “favorable to modest results”. For the same molecule, the oxygen uptake during simulated transplantation (whole rat livers [1]; −10° C., 1 day, at 2 h) was 21.4 ± 5.8 µL O2/min/g, the “tissue adenylate energy charge” value (whole rat livers [1]; −10° C., 1 day, at 2 h) was 0.088±0.065 and the “weight gain during simulated transplantation” value (whole rat livers [1]; −10° C., 1 day, at 2 h) was 2.50±5.26%. For the same molecule, the AST levels (whole rat livers [1]; [3]) was 967±330 U/L and the portal lactate concentration (whole rat livers [1]; [3]) was 6.68 ± 1.71 mM.
For CC(O)CO (stereo not shown) [PG, propylene glycol], the lactate (whole rat livers [1]; 30 minutes warm ischemia prior to freezing at −10° C. for 1 day, at 2 h of simulated transplantation) was 6.37 ± 1.09 mM, the HSP70 in perfusate (whole rat livers [1]; clinical grade oxygenator, 1 day frozen vs Clinical Oxy. Controls) was “increase” and the “TNFα levels in perfusate” value (whole rat livers [1]; clinical grade oxygenator, across all groups) was “no changes”. The 8OHdG in perfusate (whole rat livers [1]; clinical grade oxygenator, frozen livers versus controls) was “significantly lower”, the “maximum ALT” value (whole rat livers [1]; [4]) was 722.00±155.74 U/L and the “maximum AST” value (whole rat livers [1]; [4]) was 958.67±278.50 U/L. The “potassium level at end of simulated transplantation” value (whole rat livers [1]; [4]) was 5.23 ± 0.252 mM, the bile production (whole rat livers [1]; [5]) was 0.67 ± 0.92 µL/g and the “liver weight gain during simulated transplantation” value (whole rat livers [1]; [5]) was 12.00±8.66%. For the same molecule, the vascular resistance (whole rat livers [1]; [5]) was 0.004±0.002 mmHg*min*mL-i*g^−1, the “maximum ALT” value (whole rat livers [1]; [6]) was 886.67±241.80 U/L and the “maximum AST” value (whole rat livers [1]; [6]) was 1190.33±117.35 U/L. The “potassium level at end of simulated transplantation” value (whole rat livers [1]; [6]) was 5.167 ± 0.404 mM, the bile production (whole rat livers [1]; [7]) was 2.92 ± 3.74 µL/g and the vascular resistance (whole rat livers [1]; [7]) was 0.007±0.010 mmHg*min*mL-i*g^−1. The “tissue adenylate energy charge” value (whole rat livers [1]; clinical grade oxygenator, −15° C., 5 days) was 0.131±0.031, the “liver weight gain during simulated transplantation” value (whole rat livers [1]; clinical grade oxygenator, −15° C., 5 days, at 2 h) was 26.00±15.13% and the microscopic tissue structure (whole rat livers [1]; −10° C. and −15° C., 1 day) was “some disruption of the lobular architecture with intact portal triads and hepatocyte swelling”. The “bile production during simulated transplantation” value (whole rat livers [1]; −10° C., 1 day) was “did produce bile”, the “lactate clearance after first hour of simulated transplantation” value (whole rat livers [1]; −10° C., 1 day) was “cleared lactate” and the “microscopic tissue structure (H&E, blinded pathologist)” value (whole rat livers [1]; −10° C., 1 day) was “favorable to modest results”. The AST levels (whole rat livers [1]; −10° C., 1 day, at 1 h) was 567±172 U/L, the oxygen uptake during simulated transplantation (whole rat livers [1]; −10° C., 1 day, at 1 h) was 36.9 ± 2.34 µL O2/min/g and the oxygen uptake during simulated transplantation (whole rat livers [1]; −10° C., 1 day, at 2 h) was 38.2 ± 3.66 µL O2/min/g. For the same molecule, the “vascular resistance during simulated transplantation” value (whole rat livers [1]; −10° C., 1 day, at 2 h) was 0.019±0.011 mmHg*min*mL^−1*g^−1, the “weight gain during simulated transplantation” value (whole rat livers [1]; −10° C., 1 day, at 2 h) was 4.00±9.20% and the AST levels (whole rat livers [1]; [3]) was 979±520 U/L and 979±521 U/L. The portal lactate concentration (whole rat livers [1]; [3]) was 2.95 ± 1.73 mM, the “total cumulative bile volume” value (whole rat livers [1]; [3]) was 3.56 ± 4.02 µL/g and the “lactate clearance during simulated transplantation” value (whole rat livers [1]; −15° C., 1 and 5 days) was “no lactate clearance was observed”. For the same molecule, the “bile production during simulated transplantation” value (whole rat livers [1]; −15° C., 1 day) was 6.11 ± 4.69 µL/g, the “tissue adenylate energy charge” value (whole rat livers [1]; −15° C., 1 day) was 0.061±0.019 and the AST levels (whole rat livers [1]; −15° C., 1 day, at 1 h) was 1283±224 U/L. The oxygen uptake during simulated transplantation (whole rat livers [1]; −15° C., 1 day, at 1 h) was 23.5 ± 4.68 µL O2/min/g, the AST levels (whole rat livers [1]; −15° C., 1 day, at 2 h) was 1995±530 U/L and the “lactate level at end of simulated transplantation” value (whole rat livers [1]; −15° C., 1 day, at 2 h) was 5.21 ± 2.67 mM. The “maximum ALT” value (whole rat livers [1]; −15° C., 1 day, at 2 h) was 2335±597 U/L, the maximum potassium (whole rat livers [1]; −15° C., 1 day, at 2 h) was 5.05 ± 0.48 mM and the oxygen uptake during simulated transplantation (whole rat livers [1]; −15° C., 1 day, at 2 h) was 24.9 ± 2.38 µL O2/min/g. For the same molecule, the “vascular resistance during simulated transplantation” value (whole rat livers [1]; −15° C., 1 day, at 2 h) was 0.021±0.010 mmHg*min*mL^−1*g^−1 and 0.011±0.004 mmHg*min*mL^−1*g^−1, the “bile production during simulated transplantation” value (whole rat livers [1]; −15° C., 5 days) was 3.32 ± 2.43 µL/g and the microscopic tissue structure (whole rat livers [1]; −15° C., 5 days) was “moderate to marked loss of LSECs”. The “tissue adenylate energy charge” value (whole rat livers [1]; −15° C., 5 days) was 0.062±0.029, the “lactate level at end of simulated transplantation” value (whole rat livers [1]; −15° C., 5 days, at 2 h) was 5.73 ± 1.29 mM and the “maximum ALT” value (whole rat livers [1]; −15° C., 5 days, at 2 h) was 2316±242 U/L. For the same molecule, the maximum potassium (whole rat livers [1]; −15° C., 5 days, at 2 h) was 4.95 ± 0.48 mM, the oxygen uptake during simulated transplantation (whole rat livers [1]; −15° C., 5 days, at 2 h) was 25.4 ± 9.78 µL O2/min/g and the “vascular resistance during simulated transplantation” value (whole rat livers [1]; −15° C., 5 days, at 2 h) was 0.021±0.021 mmHg*min*mL^−1*g^−1. For the same molecule, the “weight gain during simulated transplantation” value (whole rat livers [1]; −15° C., 5 days, at 2 h) was 30.25±5.56% and the “weight gain during SNMP recovery after freezing” value (whole rat livers [2]) was 40.00±4.32%.
